From US20200216417A1, “INHIBITORS OF FIBROBLAST ACTIVATION PROTEIN” (Praxis Biotech LLC, priority 2019, published 2020)
Like-named read-outs stand apart in the source and are kept apart here.

Experiments:
[1] = molecular target: T1, recombinant human DPP9 (rhDPP9) (Homo sapiens, UniProt Q86TI2); test: DPP9 inhibition assay, 10 ng rhDPP9, Tris-HCl/BSA buffer; assay type: biochemical; settings: Table 3B
T1 construct: purchased R&S system / R&D systems (both sic) 5419-SE

[2] = molecular target: T2, recombinant human FAPα (rhFAPα) (Homo sapiens, UniProt Q12884); test: FAPα enzymatic exopeptidase (dipeptidase) activity assay, Z-Gly-Pro-AMC; assay type: biochemical; settings: for inhibition at 1 µM: exopeptidase inhibition at 1 μM test compound
T2 construct: purchased R&S system (so in the source)
T2 sequence (Q12884 1-760): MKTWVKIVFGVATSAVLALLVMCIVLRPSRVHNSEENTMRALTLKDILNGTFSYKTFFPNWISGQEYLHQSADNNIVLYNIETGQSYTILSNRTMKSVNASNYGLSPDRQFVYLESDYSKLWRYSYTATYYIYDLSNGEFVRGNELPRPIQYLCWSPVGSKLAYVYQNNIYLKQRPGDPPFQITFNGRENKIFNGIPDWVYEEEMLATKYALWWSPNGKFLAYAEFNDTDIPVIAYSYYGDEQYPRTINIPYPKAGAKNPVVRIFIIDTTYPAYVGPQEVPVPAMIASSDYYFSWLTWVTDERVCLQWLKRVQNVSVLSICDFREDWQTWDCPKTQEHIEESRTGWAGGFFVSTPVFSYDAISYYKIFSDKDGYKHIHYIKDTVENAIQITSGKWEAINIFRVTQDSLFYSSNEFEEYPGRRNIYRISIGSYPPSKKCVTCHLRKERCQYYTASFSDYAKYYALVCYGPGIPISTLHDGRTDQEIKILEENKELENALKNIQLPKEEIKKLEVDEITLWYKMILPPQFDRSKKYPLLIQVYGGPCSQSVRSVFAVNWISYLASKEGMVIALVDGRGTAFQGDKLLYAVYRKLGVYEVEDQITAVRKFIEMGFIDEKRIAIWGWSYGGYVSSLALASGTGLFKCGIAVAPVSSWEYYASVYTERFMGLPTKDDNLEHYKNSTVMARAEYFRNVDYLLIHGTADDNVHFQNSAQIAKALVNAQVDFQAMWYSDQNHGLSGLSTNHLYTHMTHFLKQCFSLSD

[3] = molecular target: T3, recombinant human DPPIV (rhDPPIV) (Homo sapiens, UniProt P27487); test: DPPIV enzymatic activity assay, H-Gly-Pro-pNA; assay type: biochemical
T3 construct: purchased R&S system (so in the source)
T3 sequence (P27487 whole entry): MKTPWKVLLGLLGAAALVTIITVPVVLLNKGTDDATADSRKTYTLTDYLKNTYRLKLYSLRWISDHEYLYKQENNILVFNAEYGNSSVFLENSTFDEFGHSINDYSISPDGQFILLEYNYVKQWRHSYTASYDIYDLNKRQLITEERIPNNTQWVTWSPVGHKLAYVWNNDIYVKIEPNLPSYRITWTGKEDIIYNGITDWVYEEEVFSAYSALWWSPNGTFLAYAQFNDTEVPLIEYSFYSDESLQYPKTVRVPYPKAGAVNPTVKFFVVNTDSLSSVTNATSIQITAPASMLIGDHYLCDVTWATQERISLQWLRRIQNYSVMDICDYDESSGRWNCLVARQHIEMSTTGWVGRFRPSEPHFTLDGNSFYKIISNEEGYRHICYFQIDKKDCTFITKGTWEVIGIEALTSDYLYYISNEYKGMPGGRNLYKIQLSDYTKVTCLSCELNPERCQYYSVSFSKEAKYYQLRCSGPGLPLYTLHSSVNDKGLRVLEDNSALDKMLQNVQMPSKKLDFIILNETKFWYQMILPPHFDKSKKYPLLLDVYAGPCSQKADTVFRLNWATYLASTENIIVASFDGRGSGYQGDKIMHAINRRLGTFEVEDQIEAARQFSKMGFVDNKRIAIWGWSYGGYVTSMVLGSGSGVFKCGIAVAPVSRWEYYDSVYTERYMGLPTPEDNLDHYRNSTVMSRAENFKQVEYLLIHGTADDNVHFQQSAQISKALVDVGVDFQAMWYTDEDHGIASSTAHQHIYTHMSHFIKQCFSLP

[4] = molecular target: T1, recombinant human DPP9 (rhDPP9); test: DPP9 enzymatic activity assay, 40 ng rhDPP9, HEPES buffer; assay type: biochemical; settings: Table 3A
[5] = molecular target: T4, recombinant human PREP (rhPREP) (Homo sapiens, UniProt P48147); test: PREP enzymatic activity assay, Z-Gly-Pro-AMC; assay type: biochemical
T4 sequence (P48147 1-710): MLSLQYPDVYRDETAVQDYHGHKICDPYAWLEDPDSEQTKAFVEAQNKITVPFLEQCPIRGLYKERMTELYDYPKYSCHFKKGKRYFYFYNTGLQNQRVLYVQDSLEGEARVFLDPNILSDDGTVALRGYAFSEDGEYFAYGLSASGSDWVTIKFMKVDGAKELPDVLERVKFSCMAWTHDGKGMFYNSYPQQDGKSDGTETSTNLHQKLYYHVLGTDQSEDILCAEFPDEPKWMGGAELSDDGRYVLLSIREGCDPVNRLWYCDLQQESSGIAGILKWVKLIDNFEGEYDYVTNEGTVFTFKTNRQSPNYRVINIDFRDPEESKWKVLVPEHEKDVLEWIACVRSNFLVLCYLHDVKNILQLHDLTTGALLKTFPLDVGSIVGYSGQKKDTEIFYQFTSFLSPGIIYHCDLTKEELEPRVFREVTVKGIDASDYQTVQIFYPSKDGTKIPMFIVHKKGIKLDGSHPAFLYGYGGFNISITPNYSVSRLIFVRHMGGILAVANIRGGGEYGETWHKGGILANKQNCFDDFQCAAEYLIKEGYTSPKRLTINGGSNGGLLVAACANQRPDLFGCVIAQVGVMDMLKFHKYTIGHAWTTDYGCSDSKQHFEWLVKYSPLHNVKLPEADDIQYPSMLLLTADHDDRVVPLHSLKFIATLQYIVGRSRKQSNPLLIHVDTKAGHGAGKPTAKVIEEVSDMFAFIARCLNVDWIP

[6] = test system: human AML cell line MV4-11; test: Cytotoxicity assay in human leukemia cell lines (Cell-Titer Glo); settings: MV4-11, 48 h, read-out: MV4-11 viability IC50, μM
[7] = Table 2, read-out: rhFAPα (% exo inh @ 1 μM)
[8] = Table 3B, read-out: rhFAPα % exo inh @ 1 μM
[9] = exopeptidase, Table 2, read-out: rhFAPα (exo IC50)
[10] = exopeptidase, Table 3A, read-out: rhFAPα (exo IC50)

T1 sequence (Q86TI2 whole entry): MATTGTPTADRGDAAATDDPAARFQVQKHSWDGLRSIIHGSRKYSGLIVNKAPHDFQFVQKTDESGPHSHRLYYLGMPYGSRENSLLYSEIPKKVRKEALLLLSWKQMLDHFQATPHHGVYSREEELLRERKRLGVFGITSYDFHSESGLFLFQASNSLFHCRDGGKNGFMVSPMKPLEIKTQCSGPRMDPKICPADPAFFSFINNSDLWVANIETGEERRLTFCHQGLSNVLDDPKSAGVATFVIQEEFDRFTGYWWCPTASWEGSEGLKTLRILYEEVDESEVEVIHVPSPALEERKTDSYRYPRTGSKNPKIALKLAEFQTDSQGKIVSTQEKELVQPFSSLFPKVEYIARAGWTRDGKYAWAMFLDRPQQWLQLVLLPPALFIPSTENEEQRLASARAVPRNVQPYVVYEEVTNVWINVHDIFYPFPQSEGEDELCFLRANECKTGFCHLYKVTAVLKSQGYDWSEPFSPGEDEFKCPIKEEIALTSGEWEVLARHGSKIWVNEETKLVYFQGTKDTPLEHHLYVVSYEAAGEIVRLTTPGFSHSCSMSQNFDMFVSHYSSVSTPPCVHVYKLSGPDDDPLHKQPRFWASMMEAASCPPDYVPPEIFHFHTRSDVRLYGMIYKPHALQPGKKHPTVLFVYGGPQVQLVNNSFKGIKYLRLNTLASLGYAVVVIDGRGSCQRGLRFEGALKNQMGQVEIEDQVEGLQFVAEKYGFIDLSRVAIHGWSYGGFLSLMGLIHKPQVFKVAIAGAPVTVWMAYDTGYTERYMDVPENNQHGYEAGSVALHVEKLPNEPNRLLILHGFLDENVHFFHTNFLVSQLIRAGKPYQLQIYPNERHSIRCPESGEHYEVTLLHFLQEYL

Row | Compound | IC50 [1] [nM] | IC50 ([2]; Table 3B, read-out: rhFAP IC50) [nM] | inhibition at 1 µM [2, 7] [%] | inhibition at 1 µM [2, 8] [%] | IC50 [2, 9] [nM] | IC50 [2, 10] [nM] | IC50 ([3]; Table 3A) [nM] | IC50 ([3]; Table 3B) [nM] | IC50 [4] [nM] | IC50 ([5]; Table 3A) [nM] | IC50 ([5]; Table 3B) [nM] | IC50 [6] [µM]
1 | N#C[C@@H]1CC(F)(F)CN1C(=O)CNC(=O)c1ccncc1NC(=O)Cc1ccccc1 [Compound 1, (S)—N-(2-(2-cyano-4,4-difluoropyrrolidin-1-yl)-2-oxoethyl)-3-(2-phenylacetamido)isonicotinamide] | 1000 to 10000 | < 1000 | > 50 | > 50 | < 1000 | < 1000 | > 10000 | > 10000 | > 10000 | > 10000 | > 10000 | 
2 | CC(Nc1cnccc1C(=O)NCC(=O)N1CC(F)(F)C[C@H]1C#N)c1ccc(F)cc1 (stereo partly drawn) [Compound 4, N-(2-((S)-2-cyano-4,4-difluoropyrrolidin-1-yl)-2-oxoethyl)-3-((1-(4-fluorophenyl)ethyl)amino)isonicotinamide] | 1000 to 10000 | < 1000 | > 50 | > 50 | < 1000 | < 1000 | 1000 to 10000 | 1000 to 10000 | > 10000 | > 10000 | > 10000 | 
3 | N#C[C@@H]1CC(F)(F)CN1C(=O)CNC(=O)c1ccncc1CCc1ccc(Cl)cc1 [Compound 10, (S)-3-(4-chlorophenethyl)-N-(2-(2-cyano-4,4-difluoropyrrolidin-1-yl)-2-oxoethyl)isonicotinamide] | 1000 to 10000 | < 1000 | > 50 | > 50 | < 1000 | < 1000 | 1000 to 10000 | 1000 to 10000 | 1000 to 10000 | 1000 to 10000 | 1000 to 10000 | 
4 | N#C[C@@H]1CC(F)(F)CN1C(=O)CNC(=O)c1ccncc1CCc1ccc(F)cc1 [Compound 11, (S)—N-(2-(2-cyano-4,4-difluoropyrrolidin-1-yl)-2-oxoethyl)-3-(4-fluorophenethyl)isonicotinamide] | 1000 to 10000 | < 1000 | > 50 | > 50 | < 1000 | < 1000 | > 10000 | > 10000 | 1000 to 10000 | 1000 to 10000 | 1000 to 10000 | 
5 | N#C[C@@H]1CC(F)(F)CN1C(=O)CNC(=O)c1ccncc1/C=C/c1ccc(F)cc1 [Compound 12, (S,E)-N-(2-(2-cyano-4,4-difluoropyrrolidin-1-yl)-2-oxoethyl)-3-(4-fluorostyryl)isonicotinamide] | 1000 to 10000 | < 1000 | > 50 | > 50 | < 1000 | < 1000 | 1000 to 10000 | 1000 to 10000 | 1000 to 10000 | > 10000 | > 10000 | 
6 | C/C(=C\c1cnccc1C(=O)NCC(=O)N1CC(F)(F)C[C@H]1C#N)c1ccc(F)cc1 [Compound 13, (S,E)-N-(2-(2-cyano-4,4-difluoropyrrolidin-1-yl)-2-oxoethyl)-3-(2-(4-fluorophenyl)prop-1-en-1-yl)isonicotinamide] | 1000 to 10000 | < 1000 | > 50 | > 50 | < 1000 | < 1000 | > 10000 | > 10000 | 1000 to 10000 | > 10000 | > 10000 | 
7 | C=C(Cc1cnccc1C(=O)NCC(=O)N1CC(F)(F)C[C@H]1C#N)c1ccc(F)cc1 [Compound 14, (S)—N-(2-(2-cyano-4,4-difluoropyrrolidin-1-yl)-2-oxoethyl)-3-(2-(4-fluorophenyl)allyl)isonicotinamide] | 1000 to 10000 | < 1000 | > 50 | > 50 | < 1000 | < 1000 | > 10000 | > 10000 | 1000 to 10000 |  | 1000 to 10000 | 
8 | COc1ccc(/C=C/c2cnccc2C(=O)NCC(=O)N2CC(F)(F)C[C@H]2C#N)cc1 [Compound 15] | < 1000 | < 1000 |  | > 50 |  |  |  | > 10000 |  |  | > 10000 | > 10
9 | N#C[C@@H]1CC(F)(F)CN1C(=O)CNC(=O)c1ccnc2ccc(/C=C/c3ccc(Cl)cc3)cc12 [Compound 34] | < 1000 | < 1000 |  | > 50 |  |  |  | > 10000 |  |  | > 10000 | < 3
10 | N#C[C@@H]1CC(F)(F)CN1C(=O)CNC(=O)c1ccncc1/C=C/c1ccc2cc(Cl)ccc2c1 [Compound 40] | < 1000 | < 1000 |  | > 50 |  |  |  | 1000 to 10000 |  |  | > 10000 | 3 to 10
11 | COc1ccc(C#Cc2ccc3nccc(C(=O)NCC(=O)N4CC(F)(F)C[C@H]4C#N)c3c2)cc1 [Compound 41] | < 1000 | < 1000 |  | > 50 |  |  |  | > 10000 |  |  | > 10000 | > 10
12 | N#C[C@@H]1CC(F)(F)CN1C(=O)CNC(=O)c1ccnc2ccc(/C=C/c3ccc(F)cc3)cc12 [Compound 44] | < 1000 | < 1000 |  | > 50 |  |  |  | > 10000 |  |  | > 10000 | < 3
13 | Cc1ccc(/C=C/c2ccc3nccc(C(=O)NCC(=O)N4CC(F)(F)C[C@H]4C#N)c3c2)cn1 [Compound 45] | < 1000 | < 1000 |  | > 50 |  |  |  | > 10000 |  |  | > 10000 | 3 to 10
